Measured values from US20240180836A1, “Cationic Lipid Compound and Composition for Delivery of Nucleic Acids and Use Thereof” (Shenzhen Rhegen Biotechnology Co., Ltd., priority 2022, published 2024).

Assay: In vivo metabolic rates of cationic lipids (cationic lipid content in liver by HPLC-CAD)
Details: 5 ug EPO-mRNA-lipid nanoparticles, tail vein injection, female Balb/c mice, 1 h to 48 h after injection, compared with DLin-MC3-DMA
Protocol: 5 ug EPO-mRNA-lipid nanoparticles were injected via tail vein injection in 6-8 week old female Balb/c mice, prepared as in Example 13. After injection, the mice were executed at different time points (1 h, 3 h, 6 h, 24 h, 48 h after injection). The livers were taken and crushed, and the lipids were extracted from them with chloroform in three times, and the extracts were finally combined. After spin distillation to remove chloroform, methanol was added to dissolve the sample, and the cationic lipid content therein was analyzed by HPLC-CAD (Thermo Vanquish), with an Acclaim™ C18 column as the analytical column, a 0.5% TEAA aqueous solution as mobile phase A and a 0.5% TEAA methanol solution as mobile phase B. The sample was eluted according to the gradient in Table 2 below.

CCCCCCCCCSC(=O)CCCCCCCN(CCO)CCCCCCCC(=O)SC(CCCCCCCC)CCCCCCCC [Compound 9]
In vivo metabolism rate of cationic lipid (FIG. 3): metabolized in vivo faster than DLin-MC3-DMA
